Experiments:
HIV-1BaL = assay: Inhibition of HIV-1 infection in monocyte-derived macrophages; type: cell-based; details: six days of culture, p24 in supernatants, dose-dependent
Experimental: (§1) FIG. 3 represents the inhibition of HIV-1 replication in AZT-NP-treated macrophages. Monocyte-derived macrophages were infected with CCR5-tropic HIV-1Ba-L for 3 h. After several washes, increasing concentrations of AZT derivatives were added to infected macrophages for 6 days of culture. The level of virus replication was monitored in culture supernatants by the p24 antigen capture ELISA. The infection inhibition is expressed as percentage of the average of three independent experiments (A). The frequency of infected cells was determined by flow cytometry after a costaining of macrophages with mAbs anti-CD206 (a marker of macrophages) and mAbs anti-p24 which target intracellular HIV-1 (B). Addition of AZT derivatives was followed by the increase of the size of macrophages as assessed by the Forward-Scattered light parameter (FSC) in flow cytometry (C). […] Using flow cytometry, the expression of the two HIV-1 coreceptors CCR5 (E) and CXCR4 (F) was determined at the surface of AZT derivatives-treated macrophages.
After 6 days of activation or differentiation, cells were washed twice and seeded into 96-well culture plates ([…]). […] The level of virus replication was monitored by HIV-1 p24 antigen ELISA.
Following six days of infection, the frequency of HIV-1-infected cells was determined by flow cytometry to detect intracellular HIV-1 p24 molecule. […]

CCR5 = assay: Surface expression of HIV-1 coreceptor on treated macrophages (flow cytometry); type: cell-based, human
Experimental: as §1
Following six days of infection, the frequency of HIV-1-infected cells was determined by flow cytometry to detect intracellular HIV-1 p24 molecule. […] Stained cells were immediately acquired on a FACScalibur (Becton Dickinson) and analyzed with FlowJo software.

HIV-1 = details: DCs infected, then treated with increasing concentrations, T cells added, 6 days
Experimental: The question of the impact of NP on HIV-1 transmission from DCs to autologous T cells was addressed. DCs were first infected with HIV-1, then incubated with increasing concentrations of AZT derivatives before T cells were added.
To assess the transmission of HIV-1 from DCs to autologous T-cells, DCs were incubated into 96-well culture plates (1×10^5 cells/well) and infected with HIV-1 (1 ng p24 antigen) for 3 h at 37° C. in a 5% CO2 atmosphere. Following four washes, DCs were shortly incubated with increasing concentrations of indicated molecules or AZT (2 μM), and autologous stimulated T cells were added onto HIV-exposed DCs at DC: T-cell ratio of 1:5. Cells were cultured for 6 days. Each sample was performed in triplicate. Culture supernatants were harvested every 3 days and fresh medium with compounds was added. Supernatants were inactivated with 1% Triton X-100 and frozen at −20° C. Viral production by T lymphocytes was evaluated at the sixth day of the co-culture by measurement of p24 antigen in supernatants using capture ELISA.

[1] = test system: J774A.1 mouse macrophages; assay: [3H]-AZT-TP cellular uptake; type: cell-based; details: J774A.1 cells, up to 8 hour exposure
Experimental: Nanoparticles containing [methyl-^3H]-AZT-TP were prepared and purified as described above then diluted 1:10 in cell culture medium (in order to maintain cell viability above 80% as determined by MTT tests), so to have 70 nCi/well. A control solution of AZT-TP at the same final radioactivity concentration was used for comparison.
Cells were recovered from the culture flasks, counted and seeded in 6-well plates, at a surface density of 800,000 cells/well for J774A.1 and 160,000 for THP-1 using 2 mL medium per well. After 24 h incubation, the medium was withdrawn and 2 mL of AZT-TP nanoparticles or free AZT-TP were added in each well. Nanoparticles and AZT-TP were incubated with cells for 2 and 8 hours, after which the uptake was stopped by removing the cell culture medium. The cells were washed twice with PBS (Lonza) to remove loosely bound compounds and then lysed with 1 mL Solvable (Perkin-Elmer, France). The radioactivity of the supernatant medium, the washing supernatants and the cell lysate were counted. The uptake kinetics of nanoparticle AZT-TP was studied for 2 and 8 hours and compared to that of free AZT-TP.

| Compound | production of HIV-1 by macrophages (HIV-1BaL) | expression of HIV-1 coreceptor CCR5 at macrophage surface (CCR5) | production of HIV-1 after transmission from DCs to autologous T cells (HIV-1) | AZT-TP uptake [1] |
| --- | --- | --- | --- | --- |
| Cc1cn([C@H]2C[C@H](N=[N+]=[N-])[C@@H](CO)O2)c(=O)[nH]c1=O [AZT, zidovudine] | inhibited | did not interfere | inhibited |  |
| Cc1cn([C@H]2C[C@H](N=[N+]=[N-])[C@@H](COP(=O)(O)OP(=O)(O)OP(=O)(O)O)O2)c(=O)[nH]c1=O [AZT-TP] | inhibited | did not interfere | inhibited | around 3 nmol per million cells |
